For 18 compounds, ring closure, isolated yield results are on record in patent US12252497B2, “Ras inhibitors” (Revolution Medicines, Inc., priority 2021, dated 2025).

The structures appear in SMILES notation. Like-named read-outs stand apart in the source and are kept apart here.

The conditions of this data set: ester bond, 18-membered ring.

Turning to `CCn1c(-c2cc(N3CCN4CCOC[C@@H]4C3)cnc2[C@H](C)OC)c2c3cc(ccc31)N1CCO[C@@H](C[C@H](NC(=O)OC(C)(C)C)C(=O)N3CCC[C@H](N3)C(=O)OCC(C)(C)C2)C1`, the ring closure, isolated yield (from CCn1c(-c2cc(N3CCN4CCOC[C@@H]4C3)cnc2[C@H](C)OC)c(CC(C)(C)CO)c2cc(N3CCO[C@@H](C[C@H](NC(=O)OC(C)(C)C)C(=O)N4CCC[C@@H](C(=O)O)N4)C3)ccc21, EDCI/HOBt/NMM, DCM, 11.2 mM, 25.0 °C) stood at 51%.
As for `CO[C@@H](C)c1ncc(N2CCN3CCCC[C@@H]3C2)cc1-c1c2c3cc(ccc3n1CC(F)(F)F)-c1cccc(c1)C[C@H](NC(=O)OC(C)(C)C)C(=O)N1CCC[C@H](N1)C(=O)OCC(C)(C)C2`, the ring closure, isolated yield (from CO[C@@H](C)c1ncc(N2CCN3CCCC[C@@H]3C2)cc1-c1c(CC(C)(C)CO)c2cc(-c3cccc(C[C@H](NC(=O)OC(C)(C)C)C(=O)N4CCC[C@@H](C(=O)O)N4)c3)ccc2n1CC(F)(F)F, EDCI.HCl/HOBt/DIPEA, DCM, 12.9 mM, 0.0 °C) came to 65%.
As for `CO[C@@H](C)c1ncc(N2CCN(C3CC3)CC2)cc1-c1c2c3cc(ccc3n1CC(F)(F)F)C1=CCCN(C1)C[C@H](NC(=O)OC(C)(C)C)C(=O)N1CCC[C@H](N1)C(=O)OCC(C)(C)C2`, the ring closure, isolated yield (from CO[C@@H](C)c1ncc(N2CCN(C3CC3)CC2)cc1-c1c(CC(C)(C)CO)c2cc(C3=CCCN(C[C@H](NC(=O)OC(C)(C)C)C(=O)N4CCC[C@@H](C(=O)O)N4)C3)ccc2n1CC(F)(F)F, EDCI/HOBt/DIEA, DCM, 10.8 mM, 25.0 °C) was 73%.
For the setting “from CO[C@@H](C)c1ncc(N2CCN(C3CC3)CC2)cc1-c1c(CC(C)(C)CO)c2cc(N3CCO[C@@H](C[C@H](NC(=O)OC(C)(C)C)C(=O)N4CCC[C@@H](C(=O)O)N4)C3)ccc2n1CC(F)(F)F, EDCI/HOBt/DIEA, DCM, 9.22 mM, 25.0 °C”, `CO[C@@H](C)c1ncc(N2CCN(C3CC3)CC2)cc1-c1c2c3cc(ccc3n1CC(F)(F)F)N1CCO[C@@H](C[C@H](NC(=O)OC(C)(C)C)C(=O)N3CCC[C@H](N3)C(=O)OCC(C)(C)C2)C1` showed a ring closure, isolated yield of 64%.
Under “from CCn1c(-c2cc(N3CCN(C(=O)OCc4ccccc4)CC3)cnc2[C@H](C)OC)c(CC(C)(C)CO)c2cc(-c3csc(C[C@H](NC(=O)OC(C)(C)C)C(=O)N4CCC[C@@H](C(=O)O)N4)n3)ccc21, EDCI/HOBt/DIPEA, MeCN, 10.3 mM, 25.0 °C”, `CCn1c(-c2cc(N3CCN(C(=O)OCc4ccccc4)CC3)cnc2[C@H](C)OC)c2c3cc(ccc31)-c1csc(n1)C[C@H](NC(=O)OC(C)(C)C)C(=O)N1CCC[C@H](N1)C(=O)OCC(C)(C)C2` yielded a ring closure, isolated yield of 55%.
As for `CCn1c(-c2cc(N3CCN4CCOC[C@@H]4C3)cnc2[C@H](C)OC)c2c3cc(ccc31)-c1cc(cc(C(F)F)c1)C[C@H](NC(=O)OC(C)(C)C)C(=O)N1CCC[C@H](N1)C(=O)OCC(C)(C)C2`, for the setting “from CCn1c(-c2cc(N3CCN4CCOC[C@@H]4C3)cnc2[C@H](C)OC)c(CC(C)(C)CO)c2cc(-c3cc(C[C@H](NC(=O)OC(C)(C)C)C(=O)N4CCC[C@@H](C(=O)O)N4)cc(C(F)F)c3)ccc21, EDCI/HOBt/DIEA, DCM, 10.7 mM, 25.0 °C”, the ring closure, isolated yield turned out to be 42%.
For the compound `CCn1c(-c2cc(N3CCN4CCC[C@@H]4C3)cnc2[C@H](C)OC)c2c3cc(ccc31)-c1cc(cc(C(F)F)c1)C[C@H](NC(=O)OC(C)(C)C)C(=O)N1CCC[C@H](N1)C(=O)OCC(C)(C)C2`, the ring closure, isolated yield (from CCn1c(-c2cc(N3CCN4CCC[C@@H]4C3)cnc2[C@H](C)OC)c(CC(C)(C)CO)c2cc(-c3cc(C[C@H](NC(=O)OC(C)(C)C)C(=O)N4CCC[C@@H](C(=O)O)N4)cc(C(F)F)c3)ccc21, EDCI/HOBt/DIEA, DCM, 10.1 mM, 25.0 °C) worked out at 78%.
For `CO[C@@H](C)c1ncc(N2CCN3CCOC[C@@H]3C2)cc1-c1c2c3cc(ccc3n1CC(F)(F)F)N1CCO[C@@H](C[C@H](NC(=O)OC(C)(C)C)C(=O)N3CCC[C@H](N3)C(=O)OCC(C)(C)C2)C1`, the ring closure, isolated yield (from CO[C@@H](C)c1ncc(N2CCN3CCOC[C@@H]3C2)cc1-c1c(CC(C)(C)CO)c2cc(N3CCO[C@@H](C[C@H](NC(=O)OC(C)(C)C)C(=O)N4CCC[C@@H](C(=O)O)N4)C3)ccc2n1CC(F)(F)F, EDCI/HOBt/NMM, DCM, 10.6 mM, 25.0 °C) came to 48%.
For the compound `CO[C@@H](C)c1ncc(N2CCN3CCOC[C@@H]3C2)cc1-c1c2c3cc(ccc3n1CC(F)(F)F)-c1csc(n1)C[C@H](NC(=O)OC(C)(C)C)C(=O)N1CCC[C@H](N1)C(=O)OCC(C)(C)C2`, the ring closure, isolated yield (from CO[C@@H](C)c1ncc(N2CCN3CCOC[C@@H]3C2)cc1-c1c(CC(C)(C)CO)c2cc(-c3csc(C[C@H](NC(=O)OC(C)(C)C)C(=O)N4CCC[C@@H](C(=O)O)N4)n3)ccc2n1CC(F)(F)F, EDCI/HOBt/DIEA, DCM, 10.6 mM, 25.0 °C) is 64%.
`CCn1c(-c2cc(N3CCN4CCCC[C@@H]4C3)cnc2[C@H](C)OC)c2c3cc(ccc31)-c1csc(n1)C[C@H](NC(=O)OC(C)(C)C)C(=O)N1CCC[C@H](N1)C(=O)OCC(C)(C)C2`: the ring closure, isolated yield (from CCn1c(-c2cc(N3CCN4CCCC[C@@H]4C3)cnc2[C@H](C)OC)c(CC(C)(C)CO)c2cc(-c3csc(C[C@H](NC(=O)OC(C)(C)C)C(=O)N4CCC[C@@H](C(=O)O)N4)n3)ccc21, EDCI/HOBt/DIPEA, DCM, 11.3 mM, 25.0 °C) came to 49%.
Regarding `CCn1c(-c2cc(N3CCN4CCCC[C@@H]4C3)cnc2[C@H](C)OC)c2c3cc(ccc31)N1CCO[C@@H](C[C@H](NC(=O)OC(C)(C)C)C(=O)N3CCC[C@H](N3)C(=O)OCC(C)(C)C2)C1`, the ring closure, isolated yield (from CCn1c(-c2cc(N3CCN4CCCC[C@@H]4C3)cnc2[C@H](C)OC)c(CC(C)(C)CO)c2cc(N3CCO[C@@H](C[C@H](NC(=O)OC(C)(C)C)C(=O)N4CCC[C@@H](C(=O)O)N4)C3)ccc21, EDCI/HOBt/DIPEA, DMF, 11.2 mM, 25.0 °C) is 73%.
On to `CCn1c(-c2cc(N3CCN4CCOC[C@@H]4C3)cnc2[C@H](C)OC)c2c3cc(ccc31)-c1cc(CF)cc(c1)C[C@H](NC(=O)OC(C)(C)C)C(=O)N1CCC[C@H](N1)C(=O)OCC(C)(C)C2`, for which the ring closure, isolated yield (from CCn1c(-c2cc(N3CCN4CCOC[C@@H]4C3)cnc2[C@H](C)OC)c(CC(C)(C)CO)c2cc(-c3cc(CF)cc(C[C@H](NC(=O)OC(C)(C)C)C(=O)N4CCC[C@@H](C(=O)O)N4)c3)ccc21, EDCI/HOBt/DIEA, DCM, 11.3 mM, 0.0 °C) turned out to be 69%.
In turn, `CCn1c(-c2cc(N3CCN(C4CC4)CC3)cnc2[C@H](C)OC)c2c3cc(ccc31)N1CCO[C@@H](C[C@H](NC(=O)OCc3ccccc3)C(=O)N3CCC[C@H](N3)C(=O)OCC(C)(C)C2)C1` came in with a ring closure, isolated yield (from CCn1c(-c2cc(N3CCN(C4CC4)CC3)cnc2[C@H](C)OC)c(CC(C)(C)CO)c2cc(N3CCO[C@@H](C[C@H](NC(=O)OCc4ccccc4)C(=O)N4CCC[C@@H](C(=O)O)N4)C3)ccc21, EDCI/HOBt/DIEA, DCM, 11.3 mM, 30.0 °C) of 50%.
Where the note is “from CCn1c(-c2cc(N3CCN4CCOC[C@@H]4C3)cnc2[C@H](C)OC)c(CC(C)(C)CO)c2cc(-c3csc(C[C@H](NC(=O)OC(C)(C)C)C(=O)N4CCC[C@@H](C(=O)O)N4)n3)ccc21, EDCI/HOBt/DIPEA, DCM, 11.3 mM, 25.0 °C”, `CCn1c(-c2cc(N3CCN4CCOC[C@@H]4C3)cnc2[C@H](C)OC)c2c3cc(ccc31)-c1csc(n1)C[C@H](NC(=O)OC(C)(C)C)C(=O)N1CCC[C@H](N1)C(=O)OCC(C)(C)C2` returned a ring closure, isolated yield of 52%.
The compound `CCn1c(-c2cc(N3CCN4CCC[C@@H]4C3)cnc2[C@H](C)OC)c2c3cc(ccc31)-c1cccc(c1)C[C@H](NC(=O)OC(C)(C)C)C(=O)N1CCC[C@H](N1)C(=O)OCC(C)(C)C2` yielded a ring closure, isolated yield (from CCn1c(-c2cc(N3CCN4CCC[C@@H]4C3)cnc2[C@H](C)OC)c(CC(C)(C)CO)c2cc(-c3cccc(C[C@H](NC(=O)OC(C)(C)C)C(=O)N4CCC[C@@H](C(=O)O)N4)c3)ccc21, EDCI/HOBt/DIPEA, DCM, 16.7 mM, 25.0 °C) of 42%.
As for `CCn1c(-c2cc(N3CCN4CCCC[C@@H]4C3)cnc2[C@H](C)OC)c2c3cc(ccc31)-c1cc(cc(C(F)F)c1)C[C@H](NC(=O)OC(C)(C)C)C(=O)N1CCC[C@H](N1)C(=O)OCC(C)(C)C2`, under “from CCn1c(-c2cc(N3CCN4CCCC[C@@H]4C3)cnc2[C@H](C)OC)c(CC(C)(C)CO)c2cc(-c3cc(C[C@H](NC(=O)OC(C)(C)C)C(=O)N4CCC[C@@H](C(=O)O)N4)cc(C(F)F)c3)ccc21, EDCI/HOBt/DIEA, DCM, 5.27 mM, 25.0 °C”, the ring closure, isolated yield came to 90%.
In turn, `CCn1c(-c2cc(N3CCN4CCC[C@@H]4C3)cnc2[C@H](C)OC)c2c3cc(ccc31)-c1csc(n1)C[C@H](NC(=O)OC(C)(C)C)C(=O)N1CCC[C@H](N1)C(=O)OCC(C)(C)C2` came in with a ring closure, isolated yield (from CCn1c(-c2cc(N3CCN4CCC[C@@H]4C3)cnc2[C@H](C)OC)c(CC(C)(C)CO)c2cc(-c3csc(C[C@H](NC(=O)OC(C)(C)C)C(=O)N4CCC[C@@H](C(=O)O)N4)n3)ccc21, EDCI/HOBt/DIEA, DCM, 111.6 mM, 25.0 °C, 16.0 h) of 37%.
Where the note is “from CCn1c(-c2cc(N3CCN(C4CC4)CC3)cnc2[C@H](C)OC)c(CC(C)(C)CO)c2cc(-c3cccc(C[C@H](NC(=O)OC(C)(C)C)C(=O)N4CCC[C@@H](C(=O)O)N4)c3)ccc21, EDCI/HOBt/DIEA, DCM, 14.4 mM, 25.0 °C”, `CCn1c(-c2cc(N3CCN(C4CC4)CC3)cnc2[C@H](C)OC)c2c3cc(ccc31)-c1cccc(c1)C[C@H](NC(=O)OC(C)(C)C)C(=O)N1CCC[C@H](N1)C(=O)OCC(C)(C)C2` came in with a ring closure, isolated yield of 64%.
